Results taken from US12384769B2, “Heteroaryl-substituted aminoalkyl azole compounds as pesticides” (Elanco Animal Health GmbH, priority 2019, dated 2025).

Experiments:
Format in all cases: in vivo
Spodoptera frugiperda = Spodoptera frugiperda spray test; conditions: in Zea mays, 168 h, read-out: activity (mortality)
Method in brief: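 Larvae of fall armyworm placed on dried maize leaf sections previously sprayed with emulsified compound (acetone/DMF solvent, water with 1000 ppm emulsifier). Percent of caterpillars killed recorded on day 7, 0–100% scale.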

Diabrotica balteata = Diabrotica balteata spray test; conditions: 168 h, wheat seeds, after 7 days, read-out: activity (efficacy, seedlings grown); for pest or weed control at 160 µg/disc, 500 g/ha: 500 g/ha (=160 μg/well)
Method in brief: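 Efficacy was read 7 days after infesting each unit with 10–20 banded cucumber beetle larvae, as % of seedlings growing like untreated, uninfested controls. Before infestation, wheat seeds germinated 1 day on agar (5 per well) were sprayed with the active ingredient. The active was formulated in acetone/DMF and diluted in water containing emulsifier.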

Rhipicephalus sanguineus = Rhipicephalus sanguineus in-vitro contact test, adult brown dog ticks (RHIPSA Contact); conditions: 5 μg/cm^2 (=500 g/ha), after 48 hours, read-out: activity (efficacy, ticks dead or moribund)
Protocol: Rhipicephalus sanguineus—in-Vitro Contact Tests with Adult Brown Dog Ticks (RHIPSA Contact)
(§1) 9 mg compound is solved in 1 ml acetone and diluted with acetone to the desired concentration. 250 μl_, of the test solution is filled in 25 ml glass test tubes and homogeneously distributed on the inner walls by rotation and tilting on a shaking device (2 h at 30 rpm). With a compound concentration of 900 ppm, an inner surface of 44.7 cm^2 and a homogeneous distribution, a dose of 5 μg/cm^2 is achieved.
(§2) After the solvent has evaporated, each test tube is filled with 5-10 adult brown dog ticks (Rhipicephalus sanguineus), closed with a perforated lid and incubated in a lying position at room temperature and relative humidity. After 48 hours efficacy is determined. The ticks are patted on the ground of the tubes and are incubated on a heating plate at 45-50° C. for at most 5 minutes Immotile or uncoordinated moving ticks, which are not able to escape the heat by climbing upwards, are marked as dead or moribund.
An efficacy of 100% means all ticks are dead or moribund; 0% means no ticks are dead or moribund.

Ctenocephalides felis [1] = experiment: Ctenocephalides felis oral test (CTECFE); conditions: 48 h, 100 ppm in cattle blood, after 2 days
Method in brief: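 About 20 adult unfed fleas fed through parafilm on cattle blood held at 37° C and dosed with compound from a DMSO concentrate; flea chamber at room temperature. Percent mortality scored after 2 days.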

Boophilus microplus = Boophilus microplus injection test (BOOPMI Injection); conditions: Rhipicephalus microplus, 168 h, injection into adult engorged female ticks, egg deposition after 7 days, read-out: activity (efficacy, infertile eggs); for pest or weed control at 0.004 mg: 4 μg/animal; for pest or weed control at 0.02 mg: 20 μg/animal
Method in brief: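 Adult engorged female ticks (5 per group) injected into the abdomen with 1 μL compound in DMSO, then held in a climate chamber. Fertile egg deposition scored after 7 days, with unclear eggs kept until hatching (~42 days). Efficacy 100% = all eggs infertile, 0% = all fertile.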

[2] = tested on: Rhipicephalus microplus (strain Parkhurst, resistant against synthetic pyrethroids); experiment: Rhipicephalus microplus in-vitro contact test, larval cattle tick (BOOPMI Contact); conditions: 5 μg/cm^2 (=500 g/ha), after 48 hours, read-out: activity (efficacy, larvae dead or moribund)
Method in brief: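 Efficacy, expressed as percentage of larvae dead or moribund, is judged by negative geotactic behaviour 48 h after larvae (20-50 per tube) enter tubes whose inner walls carry a dried acetone film of compound, 5 μg/cm² at 900 ppm. Incubation: horizontal, 27 °C, 85% relative humidity.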

Ctenocephalides felis [3] = experiment: Ctenocephalides felis in-vitro contact test, adult cat flea; conditions: 5 μg/cm^2 (=500 g/ha), after 48 hours, read-out: activity (efficacy, fleas dead or moribund)
Protocol: Ctenocephalides felis—in-Vitro Contact Tests Adult Cat Flea
as §1, with “[…]” for “250 μl_,”
as §2, with “cat fleas (Ctenocephalides felis),” for “brown dog ticks (Rhipicephalus sanguineus),”, “fleas” for “ticks”, “fleas,” for “ticks,”
An efficacy of 100% means all fleas are dead or moribund; 0% means no fleas are dead or moribund.

Compound | mortality at 100 g/ha (Spodoptera frugiperda) | mortality at 500 g/ha (Spodoptera frugiperda) | pest or weed control at 100 g/ha (Diabrotica balteata) | pest or weed control at 160 µg/disc, 500 g/ha (Diabrotica balteata) | pest or weed control at 5 µg/cm2, 5 µg/cm2 (Rhipicephalus sanguineus) | mortality at 100 ppm (Ctenocephalides felis [1]) | pest or weed control at 0.004 mg (Boophilus microplus) | pest or weed control at 0.02 mg (Boophilus microplus) | pest or weed control at 5 µg/cm2 [2] | pest or weed control at 5 µg/cm2, 5 µg/cm2 (Ctenocephalides felis [3])
C[C@H](Nc1nc2cc(C(F)(F)F)cc(Br)c2o1)c1ncnn1-c1ncccn1 [Example I-034] | 100% | 100% | 100% | 80% | 100% | 100% | 100% | 100% | 90% | 
C[C@H](Nc1nc2cc(C(F)(F)F)cc(Cl)c2o1)c1ncnn1-c1ncc(Cl)cn1 [Example I-036, 7-chloro-N-{(1S)-1-[1-(5-chloropyrimidin-2-yl)-1H-1,2,4-triazol-5-yl]ethyl}-5-(trifluoromethyl)-1,3-benzoxazol-2-amine] | 100% |  | 100% |  | 100% | 100% | 100% | 100% | 100% | 80%
C[C@H](Nc1nc2cc(C(F)(F)F)cc(Cl)c2o1)c1ncnn1-c1cnccn1 [Example I-039, 7-chloro-N-{(1S)-1-[1-(pyrazin-2-yl)-1H-1,2,4-triazol-5-yl]ethyl}-5-(trifluoromethyl)-1,3-benzoxazol-2-amine] |  | 100% | 100% | 100% | 100% | 100% | 100% | 100% | 90% | 
Cc1cnc(-n2ncnc2[C@H](C)Nc2nc3cc(C(F)(F)F)cc(Cl)c3o2)nc1 [Example I-040, 7-Chlor-N-{(1S)-1-[1-(5-methylpyrimidin-2-yl)-1H-1,2,4-triazol-5-yl]ethyl}-5-(trifluormethyl)-1,3-benzoxazol-2-amin] |  |  | 100% |  | 100% | 100% | 100% |  | 90% | 100%
C[C@H](Nc1nc2cc(C(F)(F)F)cc(Cl)c2o1)c1ncnn1-c1ccncn1 [Example I-047, 7-Chlor-N-{(1S)-1-[1-(pyrimidin-4-yl)-1H-1,2,4-triazol-5-yl]ethyl}-5-(trifluormethyl)-1,3-benzoxazol-2-amin] | 100% | 100% | 100% | 100% | 100% |  | 100% | 100% | 100% | 
C[C@H](Nc1nc2cc(C(F)(F)F)cc(Br)c2o1)c1ncnn1-c1ccc(C#N)cn1 [Example I-055, 6-[5-[(1S)-1-{[7-Brom-5-(trifluormethyl)-1,3-benzoxazol-2-yl]amino}ethyl]-1H-1,2,4-triazol-1-yl}nicotinonitril] | 100% | 100% | 100% | 100% | 100% |  | 80% | 100% | 100% | 
C[C@H](Nc1nc2cc(C(F)(F)F)c(Cl)cc2o1)c1ncnn1-c1ncc(Br)cn1 [Example I-062, N-{(1S)-1-[1-(5-Brompyrimidin-2-yl)-1H-1,2,4-triazol-5-yl]ethyl}-6-chlor-5-(trifluormethyl)-1,3-benzoxazol-2-amin] | 100% | 100% | 100% | 100% | 100% |  | 100% | 100% | 100% | 100%
C[C@H](Nc1nc2cc(C3CC3)cc(Cl)c2o1)c1ncnn1-c1ncccn1 [Example I-065, 7-Chlor-5-cyclopropyl-N-{(1S)-1-[1-(pyrimidin-2-yl)-1H-1,2,4-triazol-5-yl]ethyl}-1,3-benzoxazol-2-amin] |  |  | 100% | 100% | 100% | 100% | 100% | 100% |  | 100%
C[C@H](Nc1nc2cc(S(F)(F)(F)(F)F)cc(Cl)c2o1)c1ncnn1-c1ncc(Br)cn1 [Example I-083, N-{(1S)-1-[1-(5-Brompyrimidin-2-yl)-1H-1,2,4-triazol-5-yl]ethyl}-7-chlor-5-(pentafluor-lambda^6-sulfanyl)-1,3-benzoxazol-2-amin] | 100% |  | 80% |  | 100% |  |  |  | 100% | 80%
CC(Nc1nc2cc(C#N)cc(Cl)c2o1)c1ncnn1-c1ncccn1 (stereo not drawn) [Example I-084, 7-Chlor-2-({1-[1-(pyrimidin-2-yl)-1H-1,2,4-triazol-5-yl]ethyl}amino)-1,3-benzoxazol-5-carbonitril] |  |  |  | 100% | 80% |  | 100% | 100% | 80% | 100%
C[C@H](Nc1nc2cc(Cl)cc(C(F)(F)F)c2o1)c1ncnn1-c1ncccn1 [Example I-090, 5-Chlor-N-{(1S)-1-[1-(pyrimidin-2-yl)-1H-1,2,4-triazol-5-yl]ethyl}-7-(trifluormethyl)-1,3-benzoxazol-2-amin] |  | 100% |  | 100% | 100% |  | 80% | 100% | 100% | 
C[C@H](Nc1nc2cc(C(F)(F)F)c(Cl)cn2n1)c1ncnn1-c1ncccn1 [Example I-096, 6-chloro-N-{(1S)-1-[1-(pyrimidin-2-yl)-1H-1,2,4-triazol-5-yl]ethyl}-7-(trifluoromethyl)[1,2,4]triazolo[1,5-a]pyridin-2-amine] |  |  |  |  | 100% | 100% |  |  | 90% | 100%
C[C@H](Nc1nc2cc(Cl)c(C(F)(F)F)cn2n1)c1ncnn1-c1ncccn1 [Example I-097, 7-chloro-N-{(1S)-1-[1-(pyrimdin-2-yl)-1H-1,2,4-triazol-5-yl]ethyl}-6-(trifluoromethyl)[1,2,4]triazolo[1,5-a]pyridin-2-amine] |  |  |  |  | 80% |  |  |  | 100% | 100%
